Data on ten compounds can be found in ChEMBL document CHEMBL4017503, “Identification of a New Zinc Binding Chemotype by Fragment Screening” (J Med Chem, 2017).

Tested on in the first data set: not listed separately
The data set is described as follows: Dissociation constant, pKa of the compound. It counts as physicochemical.
Broadly, the pKa is the pH at which an ionisable group is half protonated. The compound `O=C1NC(=O)C(c2ccccc2)O1` (stereo not given) [PEMOLINE DIONE] had a pKa of 5.5.

The next data set deals with Carbonic anhydrase 2 (Homo sapiens, UniProt P00918). The data set is described as follows: Binding affinity to human carbonic anhydrase 2 by surface plasmon resonance spectrometry. (Surface plasmon resonance follows binding to a sensor surface in real time, without labels.)
The term Kd denotes the concentration at which binding is half-saturated. A lower Kd goes with tighter binding. The compound `O=C1NC(=O)C(c2ccccc2)N1` (stereo not given) had a Kd greater than 2000 µM.

For the compound `O=C1NC(=O)C(Cc2ccccc2)N1` (stereo not given), the Kd was greater than 2000 µM.

Compound `COc1ccc(/C=C2\SC(=O)NC2=O)c(OC)c1` came in with a dissociation constant (Kd) greater than 2000 µM.

`O=C1NC(=O)/C(=C/c2ccccc2)N1` registered a Kd greater than 2000 µM.

Take `COc1ccc(/C=C2\NC(=O)NC2=O)c(OC)c1`: the equilibrium dissociation constant (Kd) is greater than 2000 µM.

As for `COc1ccc(/C=C2\NC(=S)NC2=O)c(OC)c1`, the Kd was greater than 2000 µM.

Consider `COc1ccc(CC2NC(=O)NC2=O)c(OC)c1` (stereo not given), for which the Kd was greater than 2000 µM.

Turning to `CC1(C)OC(=O)NC1=O` [DIMETHADIONE], the Kd was greater than 2000 µM.

The compound `CN1C(=O)OC(C)(C)C1=O` [TRIMETHADIONE] had a Kd greater than 2000 µM.
